The source of these data is patent US20110002859A1, “CHEWING GUM CONTAINING EUCALYPTUS EXTRACT” (LOTTE CO., LTD., priority 2008, published 2011).

Experiment [1] relates to Porphyromonas gingivalis ATCC33277. Briefly: In vitro antibacterial activity, minimum inhibitory concentration (MIC). It is filed as cell-based. The conditions noted are these: 37° C., anaerobic, 24 to 48 hours, turbidity 550 nm; read-out: MIC, bacterial strain a. How it is done:
(§1) In vitro antibacterial activities of Macrocarpal A, macrocarpal B, and macrocarpal C were evaluated according to the following procedure. First, to 25 ml of a medium, added were 2.5 ml of various pre-cultured periodontopathic bacteria described below, and the whole was mixed well. A sample solution was prepared by diluting in two stages a sample stock solution on a 96-well plate by using a diluent. Within each well of the 96-well plate, 100 μl of the sample solution and 100 μl of a bacterial solution were mixed, and cultivated at 37° C. under an anaerobic condition for 24 to 48 hours. The turbidity (550 nm) of each well was measured with a microplate reader, the growth of the bacterium was assessed, and its minimum inhibitory concentration (MIC) was determined. […] (Used Bacterial Strain) a: Porphyromonas gingivalis ATCC33277

Experiment [2] relates to Prevotella intermedia ATCC25611. Described as above. The class given is cell-based. The settings on record: 37° C., anaerobic, 24 to 48 hours, turbidity 550 nm; read-out: MIC, bacterial strain b. How it is done: as §1, with “b: Prevotella intermedia ATCC25611” for “a: Porphyromonas gingivalis ATCC33277”
For experiment [3], the system named is Prevotella melaninogenica ATCC25845. The description is as above. The class given is cell-based. The conditions noted are these: 37° C., anaerobic, 24 to 48 hours, turbidity 550 nm; read-out: MIC, bacterial strain c. The protocol:
as §1, with “c: Prevotella melaninogenica ATCC25845” for “a: Porphyromonas gingivalis ATCC33277”

The test system of experiment [4] is Capnocytophaga ochracea ATCC33596. Described as above. It is filed as cell-based. The conditions noted are these: 37° C., anaerobic, 24 to 48 hours, turbidity 550 nm; read-out: MIC, bacterial strain d. The protocol:
as §1, with “d: Capnocytophaga ochracea ATCC33596” for “a: Porphyromonas gingivalis ATCC33277”

The subject of experiment [5] is periodontopathic bacteria. Briefly: In vitro growth prevention of all tested periodontopathic bacteria. The class given is cell-based. The settings on record: all four strains of Table 1. The protocol: In vitro antibacterial activities of Macrocarpal A, macrocarpal B, and macrocarpal C were evaluated according to the following procedure. First, to 25 ml of a medium, added were 2.5 ml of various pre-cultured periodontopathic bacteria described below, and the whole was mixed well. A sample solution was prepared by diluting in two stages a sample stock solution on a 96-well plate by using a diluent. Within each well of the 96-well plate, 100 μl of the sample solution and 100 μl of a bacterial solution were mixed, and cultivated at 37° C. under an anaerobic condition for 24 to 48 hours. The turbidity (550 nm) of each well was measured with a microplate reader, the growth of the bacterium was assessed, and its minimum inhibitory concentration (MIC) was determined.

Experiment [6] has as its system periodontopathic bacteria. The settings on record: background art; cited from earlier work.

In brackets after ≈: the same amount, converted by molar mass.

Regarding `C=C1CC[C@@H]2[C@H]([C@H]3[C@H]1CC[C@]3(C)[C@@H](CC(C)C)c1c(O)c(C=O)c(O)c(C=O)c1O)C2(C)C` [Macrocarpal C, macrocarpal C], the MIC in experiment [1] was found to be 0.195 µg/mL (≈ 0.429 µM); in experiment [2] it was 0.39 µg/mL (≈ 0.858 µM); in experiment [3], 1.58 µg/mL (≈ 3.48 µM); in experiment [4] it was 0.39 µg/mL (≈ 0.858 µM). For the same molecule, the “concentration capable of preventing periodontopathic bacteria from growing up” value (“concentration capable” below) in experiment [5] came out at 1.58 µg/mL.

In the case of `CC(C)C[C@H](c1c(O)c(C=O)c(O)c(C=O)c1O)[C@@]1(C)CC[C@@H]2[C@@H]1[C@H]1[C@@H](CC[C@@]2(C)O)C1(C)C` [Macrocarpal B, macrocarpal B], the MIC was determined as 0.78 µg/mL (≈ 1.65 µM) in experiment [1], 1.58 µg/mL (≈ 3.34 µM) in experiment [2], 3.13 µg/mL (≈ 6.62 µM) in experiment [3] and 1.56 µg/mL (≈ 3.3 µM) in experiment [4]. For the same molecule, the “concentration capable” value in experiment [5] came out at 3.13 µg/mL.

Regarding `CC(C)C[C@@H](c1c(O)c(C=O)c(O)c(C=O)c1O)[C@@]1(C)CC[C@@H]2[C@@H]1[C@H]1[C@@H](CC[C@@]2(C)O)C1(C)C` [Macrocarpal A, macrocarpal A], the MIC in experiment [1] was 0.195 µg/mL (≈ 0.413 µM); in experiment [2], 0.195 µg/mL (≈ 0.413 µM); in experiment [3], 0.78 µg/mL (≈ 1.65 µM); in experiment [4], 0.39 µg/mL (≈ 0.825 µM). For the same molecule, the “concentration capable” value in experiment [5] turned out to be 0.78 µg/mL.

On to `CC12CCC(CC1)C(C)(C)O2` [cineole], for which the “antibacterial activities against periodontopathic bacteria” value in experiment [6] was “weak antibacterial activities”.
